We go through 18 molecules from patent US7371746B2, “1,2,4-Thiadiazole compounds and pests controlling composition containing the same” (Sumitomo Chemical Company Limited, priority 2003, dated 2008).

A word on the pest or weed control: it is how far the test organism was held down. A high value points to a strong effect.

The subject of this assay is Aphis gossypii (cotton aphid). Description: Test Example 1: spray test on cucumber plants infested with cotton aphid. In kind it is in vivo. The settings on record: 144 h, 500 ppm active ingredient, spray liquid 20 ml/cup on cucumber plant, sixth day after the application. The protocol: The formulation of each of the present compounds (3), (4), (5), (6), (7), (8), (9), (10), (11), (14), (15a), (15b), (16a), (17a), (17b), (18a), (18b), (19), (20), (21) and (22) according to Formulation Example 5 was diluted with water so that the active ingredient concentration came to 500 ppm to prepare a spray liquid. The seeds of cucumber were planted in a polyethylene cup and it was grown until the first true leaf was developed. On the plant about twenty Aphis gossypii (cotton aphid) are allowed to be parasitic. On the next day, the above spray liquid was applied at a ratio of 20 ml/cup to the cucumber plant. On the sixth day after the application, the number of Aphis gossypii was examined, and the control value was determined by the following formula: Control value (%)={1−(Cb×Tai)/(Cai×Tb)}×100 wherein the variables in the formula have the following meanings: Cb: the number of insects before the treatment in the non-treated area; Cai: the number of insects at the time of observation in the non-treated area; Tb: the number of insects before the treatment in the treated area; and Tai: the number of insects at the time of observation in the treated area.

Bounds are passed on as bounds.

In turn, `CC#CCOc1nsc(N2CC(CC)CC(CC)C2)n1` (stereo not drawn) [present compound (19), 3-(2-butynyloxy)-5-(3,5-diethylpiperidino)-1,2,4-thiadiazole] displayed a pest or weed control at 500 ppm of at least 90%.

As for `CC#CC(C)Oc1nsc(N2CC(C)CC(C)C2)n1` (stereo not drawn) [present compound (21), 3-(1-methyl-2-butynyloxy)-5-(3,5-dimethylpiperidino)-1,2,4-thiadiazole], the pest or weed control at 500 ppm is at least 90%.

With `CCC#CCOc1nsc(N2CCCCC2)n1` [present compound (4), 3-(2-pentynyloxy)-5-piperidino-1,2,4-thiadiazole], the pest or weed control at 500 ppm is at least 90%.

The molecule `CCC#CCOc1nsc(N2CCCC(C)C2)n1` (stereo not drawn) [present compound (8), 3-(2-pentynyloxy)-5-(3-methylpiperidino)-1,2,4-thiadiazole] had a pest or weed control at 500 ppm of at least 90%.

The molecule `CC#CCOc1nsc(N2CCCC(C(F)(F)F)C2)n1` (stereo not drawn) [present compound (22), 3-(2-butynyloxy)-5-(3-trifluoromethylpiperidino)-1,2,4-thiadiazole] displayed a pest or weed control at 500 ppm of at least 90%.

For `CC#CCOc1nsc(N2CCCC(C)C2)n1` (stereo not drawn) [present compound (7), 3-(2-butynyloxy)-5-(3-methylpiperidino)-1,2,4-thiadiazole], the pest or weed control at 500 ppm was at least 90%.

Take `CC#CCOc1nsc(N2CC(C)CC(C)C2)n1` (stereo not drawn) [present compound (15a), 3-(2-butynyloxy)-5-(3,5-dimethylpiperidino)-1,2,4-thiadiazole]: the pest or weed control at 500 ppm was at least 90%.

Take `CC#CCOc1nsc(N2CCC(C)CC2)n1` [present compound (11), 3-(2-butynyloxy)-5-(4-methylpiperidino)-1,2,4-thiadiazole]: the pest or weed control at 500 ppm was at least 90%.

For `C#CCOc1nsc(N2CC(C)CC(C)C2)n1` (stereo not drawn) [present compound (20), 3-(2-propynyloxy)-5-(3,5-dimethylpiperidino)-1,2,4-thiadiazole], the pest or weed control at 500 ppm is at least 90%.

`CCC#CCOc1nsc(N2CC(C)OC(C)C2)n1` (stereo not drawn) [present compound (18a), 3-(2-pentynyloxy)-5-(2,6-dimethylmorpholino)-1,2,4-thiadiazole] yielded a pest or weed control at 500 ppm of at least 90%.

In turn, `CCC#CCOc1nsc(N2CCOCC2)n1` [present compound (10), 3-(2-pentynyloxy)-5-morpholino-1,2,4-thiadiazole] displayed a pest or weed control at 500 ppm of at least 90%.

As to `CC#CCOc1nsc(N2CC(C)OC(C)C2)n1` (stereo not drawn) [present compound (17a), 3-(2-butynyloxy)-5-(2,6-dimethylmorpholino)-1,2,4-thiadiazole], the pest or weed control at 500 ppm is at least 90%.

Turning to `CC#CCOc1nsc(N2CCCCC2C)n1` (stereo not drawn) [present compound (5), 3-(2-butynyloxy)-5-(2-methylpiperidino)-1,2,4-thiadiazole], the pest or weed control at 500 ppm is at least 90%.

Take `CCC#CCOc1nsc(N2CCCCC2C)n1` (stereo not drawn) [present compound (6), 3-(2-pentynyloxy)-5-(2-methylpiperidino)-1,2,4-thiadiazole]: the pest or weed control at 500 ppm was at least 90%.

The molecule `CC#CCOc1nsc(N2CCOCC2)n1` [present compound (9), 3-(2-butynyloxy)-5-morpholino-1,2,4-thiadiazole] had a pest or weed control at 500 ppm of at least 90%.

For the molecule `CC#CCOc1nsc(N2CCCCC2)n1` [present compound (3), 3-(2-butynyloxy)-5-piperidino-1,2,4-thiadiazole], the pest or weed control at 500 ppm is at least 90%.

With `CCC#CCOc1nsc(N2CCCCCC2)n1` [present compound (14), 3-(2-pentynyloxy)-5-hexamethyleneimino-1,2,4-thiadiazole], the pest or weed control at 500 ppm is at least 90%.

Consider `CCC#CCOc1nsc(N2CC(C)CC(C)C2)n1` (stereo not drawn) [present compound (16a), 3-(2-pentynyloxy)-5-(3,5-dimethylpiperidino)-1,2,4-thiadiazole], for which the pest or weed control at 500 ppm is at least 90%.
